Entries after “also recorded” stand apart in the source; their conditions may differ. Read-outs that look alike come from different tables or passages of the source. Positions of bridges follow the written chain, without caps; N, C: chain ends. Residues, ends and D or L forms follow the SMILES beside them.
Columns and labels:
[1] = test system: PC-3; type: cell-based, human; details: 3 h
Protocol: (§1) N—Ac-CHAVC-NH2 (SEQ ID NO:10) and the control peptide N—Ac-CHGVC-NH2 (SEQ ID NO:11) were evaluated for possible cytotoxic effects on human microvascular endothelial (HMVEC; Clonetics), human umbilical vein endothelial (HUVEC; ATCC #CRL-1730), IAFp2 (human fibroblast cell line; Institute Armand-Frapier, Montreal, Quebec), WI-38 (human fibroblast cell line; ATCC #CCL-75), MDA-MB231 (human breast cancer cell line; ATCC #HTB-26), and PC-3 (human prostate cancer cell line; ATCC #CRL-1435) cells utilizing the MTT assay (Plumb et al., Cancer Res. 49:4435-4440, 1989). Neither of the peptides was cytotoxic at concentrations up to and including 100 μM. Similarly, neither of the peptides was capable of inhibiting the proliferation of the above cell lines at concentrations up to 100 μM, as judged by ^3H-thymidine incorporation assays.

[2] = test system: IAFp2; type: cell-based, human; details: 3 h
Protocol: as §1

[3] = test system: HMVEC; type: cell-based, human; details: 3 h
Protocol: as §1

[4] = test system: MDA-MB231; type: cell-based, human; details: 3 h
Protocol: as §1

[5] = test system: HUVEC; type: cell-based, human; details: 3 h
Protocol: as §1

[6] = test system: WI-38; type: cell-based, human; details: 3 h
Protocol: as §1

[7] = target: T1, N-cadherin (Gallus gallus, UniProt P10288); experiment: Neurite outgrowth inhibition, rat neurons (Example 21); type: cell-based; details: read-out: % Inhibition of neurite outgrowth; 250 μg/mL
T1 construct: expressed in transfected cells; host or cells: 3T3 fibroblasts (monolayer)
T1 sequence (P10288 165-912): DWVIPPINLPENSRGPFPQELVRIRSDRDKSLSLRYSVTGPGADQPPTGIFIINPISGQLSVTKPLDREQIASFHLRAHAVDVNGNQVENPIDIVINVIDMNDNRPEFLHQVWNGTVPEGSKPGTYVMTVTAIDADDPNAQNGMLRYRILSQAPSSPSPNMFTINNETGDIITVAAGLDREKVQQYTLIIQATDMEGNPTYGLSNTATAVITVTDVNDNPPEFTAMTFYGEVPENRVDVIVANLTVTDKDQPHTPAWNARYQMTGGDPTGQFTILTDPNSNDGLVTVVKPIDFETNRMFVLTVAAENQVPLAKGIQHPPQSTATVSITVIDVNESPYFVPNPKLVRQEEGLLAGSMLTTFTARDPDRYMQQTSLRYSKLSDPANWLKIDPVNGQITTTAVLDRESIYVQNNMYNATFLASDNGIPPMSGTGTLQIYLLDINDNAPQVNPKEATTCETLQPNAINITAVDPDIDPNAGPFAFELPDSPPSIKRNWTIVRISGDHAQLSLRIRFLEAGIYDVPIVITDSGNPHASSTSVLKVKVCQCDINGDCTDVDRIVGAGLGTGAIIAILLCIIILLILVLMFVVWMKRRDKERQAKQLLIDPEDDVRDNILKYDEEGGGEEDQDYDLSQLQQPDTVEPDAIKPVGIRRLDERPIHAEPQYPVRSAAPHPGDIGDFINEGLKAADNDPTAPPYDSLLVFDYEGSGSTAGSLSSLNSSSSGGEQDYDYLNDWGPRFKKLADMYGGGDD

[8] = test system: PC-3; experiment: Cytotoxicity, MTT assay, PC-3; type: cell-based, human
Protocol: as §1

[9] = test system: MDA-MB231; experiment: Cytotoxicity, MTT assay, MDA-MB231; type: cell-based, human
Protocol: as §1

[10] = test system: Bovine pulmonary artery endothelial cells; experiment: Disruption of bovine endothelial cell adhesion; type: cell-based; details: 500 μg/ml, 30 minutes
Protocol: For use within one such assay, bovine pulmonary artery endothelial cells may be harvested by sterile ablation and digestion in 0.1% collagenase (type II; Worthington Enzymes, Freehold, N.J.). Cells may be maintained in Dulbecco's minimum essential medium supplemented with 10% fetal calf serum and 1% antibiotic-antimycotic at 37° C. in 7% CO2 in air. Cultures may be passaged weekly in trypsin-EDTA and seeded onto tissue culture plastic at 20,000 cells/cm^2. Endothelial cultures may be used at 1 week in culture, which is approximately 3 days after culture confluency is established. The cells may be seeded onto coverslips and treated (e.g., for 30 minutes) with modulating agent or a control compound at, for example, 500 μg/ml and then fixed with 1% paraformaldehyde. As noted above, disruption of cell adhesion may be determined visually within 24 hours, by observing retraction of the cells from one another. This assay evaluates the effect of a modulating agent on N-cadherin mediated cell adhesion.
Bovine pulmonary artery endothelial cells were harvested by sterile ablation and digestion in 0.1% collagenase (type II; Worthington Enzymes, Freehold, N.J.). Cells were maintained in Dulbecco's minimum essential medium (Clonetics, San Diego, Calif.) supplemented with 10% fetal calf serum (Atlantic Biologicals, Nor cross, Ga.) and 1% antibiotic-antimycotic at 37° C. in 7% CO2 in air. Cultures were passaged weekly in trypsin-EDTA (Gibco, Grand Island, N.Y.) and seeded onto tissue culture plastic at 20,000 cells/cm^2 for all experiments. Endothelial cultures were used at 1 week in culture, which is approximately 3 days after culture confluency was established. The cells used in all protocols were between 4th passage and 10th passage. The cells were seeded onto coverslips and treated 30 minutes with N—Ac-CHAVC-NH2 (SEQ ID NO:10) or N—Ac-CHGVC-NH2 (SEQ ID NO:11) at 500 μg/ml and then fixed with 1% paraformaldehyde.

[11] = Solubility in RPMI; type: physicochemical; details: 1 mM
[12] = target: T2, chick N-cadherin (Gallus gallus, UniProt P10288); experiment: Neurite outgrowth of rat cerebellar neurons on N-cadherin expressing 3T3 monolayers (Example 15); type: cell-based
T2 construct: expressed in transfected cells; host or cells: 3T3 fibroblasts (monolayer); rat post-natal day 2-3 cerebellar neurons plated on top
T2 sequence (P10288 165-912): T1 sequence (P10288 165-912)

[13] = test system: Madin Darby canine kidney (MDCK) cells; type: cell-based
Protocol: Yet another assay evaluates the effect of a modulating agent on the electrical resistance across a monolayer of cells. For example, Madin Darby canine kidney (MDCK) cells can be exposed to the modulating agent dissolved in medium (e.g., at a final concentration of 0.5 mg/ml for a period of 24 hours). The effect on electrical resistance can be measured using standard techniques. This assay evaluates the effect of a modulating agent on tight junction formation in epithelial cells. In general, the presence of 500 μg/mL modulating agent should result in a statistically significant decrease in electrical resistance after 24 hours.
Madin Darby canine kidney (MDCK) cells were plated in Millicells (Millipore, Bedford, Mass.), at a density of 300,000 cells per Millicell, and cultured in Dulbecco's Modified Eagle Medium (DMEM; Sigma, St. Louis, Mo.) containing 5% fetal calf serum (Sigma, St. Louis, Mo.) until monolayers formed. Monolayers were exposed to the modulating agent dissolved in medium. The electrical resistance was measured using the EVOM device (World Precision Instruments, Sarasota, Fla.). At the time of measurement, fresh medium, with or without the modulating agent, may be added to the Millicells.

[14] = test system: SKOV3 cells; experiment: Disruption of human ovarian cancer cell (SKOV3) adhesion; type: cell-based; details: 1 mg/mL media, within 24 hours
Protocol: FIGS. 37A and 37B are photographs illustrating the effect of N—Ac-CHAVC-Y—NH2 (SEQ ID NO:84) on SKOV3 cell adhesion. A confluent culture of SKOV3 cells was briefly trypsinated and counted using a hemacytometer. The cells were diluted to 5×10^3/mL in MEM (Gibco BRL) containing 10% FBS (Wisent). A 10 mg/mL solution of peptide was added directly to the media at a concentration of 1 mg/mL. The plate was incubated in a humidified chamber at 37° C. for 24 hours in 5% CO2. Morphological changes were evaluated after 24 hours.
The human ovarian cancer cell line SKOV3 (ATCC #HTB-77) expresses N-cadherin. SKOV3 cells were cultured in a modified MEM-based media containing 10% FCS. Cells were grown in T-250 culture flasks and maintained by periodic subculturing. Cyclic peptides were tested on cells grown in individual wells of 96-well culture dishes (surface area of each well was 0.32 cm^2). Cells were harvested from flasks and seeded at a density of 50,000 cells per well in 0.1 mL media containing the cyclic peptides at concentrations of 1, 0.1, or 0.01 mg/mL, or in the absence of cyclic peptide. Media control wells were also established. Cultures were evaluated periodically by microscopic examination under both bright field and phase contrast conditions. Cultures were maintained for 48 hours.

[15] = test system: Madin Darby canine kidney (MDCK) cells; type: cell-based; details: 18 h
[16] = target: L1 (Homo sapiens, UniProt P32004); experiment: Neurite outgrowth of rat cerebellar neurons on L1 expressing 3T3 monolayers (Example 15); type: cell-based; design: expressed in transfected cells; rat cerebellar neurons on top
Protocol: Cell culture and neurite outgrowth assays. Co-cultures of cerebellar neurons on monolayers of control 3T3 cells and monolayers of transfected 3T3 cells that express physiological levels of chick N-cadherin or human L1 were established as previously described (Williams et al., Neuron 13:583-594, 1994). In brief, 80,000 3T3 cells (control and transfected) were plated into individual chambers of an eight-chamber tissue culture slide coated with polylysine and fibronectin and cultured in DMEM/10% FCS. After 24 hours, when confluent monolayers had formed, the medium was removed and 3000 cerebellar neurons isolated from post-natal day 2-3 rats were plated into each well in SATO media (Doherty et al., Nature 343:464-466, 1990) supplemented with 2% FCS. All of the test peptides were added immediately before the neurons as a 2× stock prepared in SATO/2% FCS. The co-cultures were maintained for 16-18 hours, at which time they were fixed and immunostained for GAP-43 which is present only in the neurons and delineates the neuritic processes. The mean length of the longest neurite per cell was measured for 150-200 neurons sampled in replicate cultures as previously described (Williams et al., Neuron 13:583-594, 1994). […] Dose-response curves were evaluated and the EC50 values determined.
Other cell adhesion molecules, such as L1, can stimulate neurite outgrowth, and this response shares the same downstream signaling steps as the N-cadherin response. […] As previously reported, L1 stimulated neurite outgrowth from cerebellar neurons.

[17] = test system: Human saphenous vein vascular smooth muscle cells; experiment: Vascular smooth muscle cell apoptosis at migrating wound edge, in situ end labeling; type: cell-based; details: 0.2 mg/ml, 24 hours after wounding, n=5, p=0.1
Protocol: Human saphenous vein vascular smooth muscle cells were explanted from surplus segments of vein from patients undergoing coronary artery bypass surgery. Cells were maintained in Dulbecco's modified essential medium supplemented with […], 2 mmol/L L-glutamine and 10% fetal calf serum and were grown to confluence on glass coverslips. The cell layer was then subjected to scrape-wounding by drawing a fine cell scraper across the coverslip. Proliferation of the vascular smooth muscle cells was inhibited by addition of 2 mM hydroxyurea to the culture media. Vascular smooth muscle cells that are treated in this manner respond to the wounding of the confluent monolayer by migrating into the wound (Hammerle et al (1991) Vasa 20, 207-215). The percentage of apoptotic cells in the migrating edge (outermost 100 μm from the wound) was assessed by in situ end labeling at 24 hours after wounding (as in George et al (2001) Gene Therapy 8 668-676).

Sequence of L1 (P32004 20-1257): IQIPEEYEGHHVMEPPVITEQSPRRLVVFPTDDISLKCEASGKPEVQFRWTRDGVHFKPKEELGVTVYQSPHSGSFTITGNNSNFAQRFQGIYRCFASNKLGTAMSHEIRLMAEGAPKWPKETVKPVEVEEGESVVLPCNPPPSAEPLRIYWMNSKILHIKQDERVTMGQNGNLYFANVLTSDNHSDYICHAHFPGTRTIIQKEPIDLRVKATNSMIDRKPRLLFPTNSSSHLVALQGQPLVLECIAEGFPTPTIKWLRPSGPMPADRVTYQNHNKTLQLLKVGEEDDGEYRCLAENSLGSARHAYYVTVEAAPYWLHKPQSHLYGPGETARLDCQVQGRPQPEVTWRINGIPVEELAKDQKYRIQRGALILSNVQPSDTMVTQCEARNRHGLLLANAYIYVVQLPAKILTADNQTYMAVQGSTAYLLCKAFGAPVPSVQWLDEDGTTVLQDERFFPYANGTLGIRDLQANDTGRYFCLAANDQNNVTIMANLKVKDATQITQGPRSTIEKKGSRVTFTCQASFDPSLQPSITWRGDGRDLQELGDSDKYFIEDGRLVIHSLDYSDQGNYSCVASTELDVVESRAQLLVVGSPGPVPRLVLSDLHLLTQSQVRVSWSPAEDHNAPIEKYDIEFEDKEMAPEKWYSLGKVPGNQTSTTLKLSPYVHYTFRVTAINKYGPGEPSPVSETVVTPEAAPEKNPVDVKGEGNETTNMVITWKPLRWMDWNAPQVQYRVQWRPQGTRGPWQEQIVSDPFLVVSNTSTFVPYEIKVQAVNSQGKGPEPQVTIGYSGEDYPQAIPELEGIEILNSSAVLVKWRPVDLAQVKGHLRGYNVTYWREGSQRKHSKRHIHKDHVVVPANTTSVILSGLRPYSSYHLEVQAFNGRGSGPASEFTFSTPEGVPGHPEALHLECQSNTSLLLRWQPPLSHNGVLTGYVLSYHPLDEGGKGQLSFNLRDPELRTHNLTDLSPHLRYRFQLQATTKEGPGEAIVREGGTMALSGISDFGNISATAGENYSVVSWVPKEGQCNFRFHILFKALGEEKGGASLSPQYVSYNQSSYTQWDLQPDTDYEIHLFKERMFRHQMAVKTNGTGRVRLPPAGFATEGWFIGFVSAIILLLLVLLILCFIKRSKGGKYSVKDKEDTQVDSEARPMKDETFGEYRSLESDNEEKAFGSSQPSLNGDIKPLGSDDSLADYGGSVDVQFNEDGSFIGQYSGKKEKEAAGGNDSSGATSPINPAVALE

| SMILES | IC50 [1] [µM] | IC50 [2] [µM] | IC50 [3] [µM] | IC50 [4] [µM] | IC50 [5] [µM] | IC50 [6] [µM] | inhibition at 250 µg/mL [7] [%] | IC50 [8] [µM] | IC50 [9] [µM] | effect on endothelial cell monolayer / morphology [10] | solubility in RPMI [11] | % inhibition of N-cadherin dependent neurite outgrowth ([12]; 125 μg/mL, 16-18 hours) [%] | inhibition at 125 µg/mL ([12]; 125 μg/mL, 16-18 hours, read-out: % Inhibition of N-Cadherin Dependent Neurite Outgrowth) [%] | effect on electrical resistance across MDCK cells (in words) [13] | disruption of SKOV3 cell adhesion [14] | EC50 [15] [µM] | inhibition at 125 µg/mL ([16]; 125 μg/ml, read-out: % Inhibition of L1 Response) [%] | effect on L1 stimulated neurite outgrowth (in words) ([16]; concentrations that inhibited the N-cadherin response (100 μg/mL in FIG. 24)) | inhibitory activity on N-cadherin dependent neurite outgrowth, structure/activity statements ([12]; Tables 8 and 9) | increase in apoptosis at wound edge [17] [fold] |
| --- | --- | --- | --- | --- | --- | --- | --- | --- | --- | --- | --- | --- | --- | --- | --- | --- | --- | --- | --- | --- |
| CC[C@H](C)[C@@H]1NC(=O)[C@H](CC(=O)O)NC(=O)[C@H](C(C)C)NC(=O)CNC(=O)[C@H](Cc2c[nH]cn2)NC(=O)[C@H](C)NC(=O)[C@@H](NC(C)=O)CSSC[C@@H](C(N)=O)NC1=O (Ac-CAHGVDIC-NH2; disulfide 1-8) | > 100 | > 100 | > 100 | > 100 | > 100 | > 100 | 0 | > 100 | > 100 | neither of the cyclic peptides show activity | – | – | – | – | – | – | – | – | – | – |
| CC(=O)N[C@H]1CSSC[C@@H](C(N)=O)NC(=O)[C@H](CO)NC(=O)[C@H](CO)NC(=O)[C@H](C(C)C)NC(=O)[C@H](C)NC(=O)[C@H](Cc2c[nH]cn2)NC(=O)[C@H](CO)NC1=O (Ac-CSHAVSSC-NH2; disulfide 1-8 (inferred)) | > 100 | > 100 | 70 | 76 | 69 | > 100 | 0 | > 100 | > 100 | – | *Incompletely soluble in RPMI at 1 mM | – | – | – | – | – | – | – | – | – |
| CC(=O)N[C@H]1CSSC[C@@H](C(=O)N[C@@H](Cc2ccc(O)cc2)C(N)=O)NC(=O)[C@H](C(C)C)NC(=O)[C@H](C)NC(=O)[C@H](Cc2c[nH]cn2)NC1=O [N—Ac—CHAVCY—NH2] (Ac-CHAVCY-NH2; disulfide 1-5) | – | – | – | – | – | – | – | – | – | – | – | 89.8 ± 6.8 | 89.9 | the most active | disrupted SKOV3 cell adhesion | 210 | – | – | – | – |
| CC[C@H](C)[C@@H]1NC(=O)[C@H](CC(=O)O)NC(=O)[C@H](C(C)C)NC(=O)[C@H](C)NC(=O)[C@H](Cc2c[nH]cn2)NC(=O)[C@@H](NC(C)=O)CSSC[C@@H](C(N)=O)NC1=O [N—Ac—CHAVDIC—NH2] (Ac-CHAVDIC-NH2; disulfide 1-7) | – | – | – | – | – | – | – | – | – | – | – | – | – | complete abrogation of E-cadherin specific activity | – | – | 6 ± 4.7 | did not interfere with the ability of neurons to extend neurites over 3T3 cells expressing L1 | further increased activity; also recorded: potent inhibitors | 1.3 |

— patent US20040106545A1, “Compounds and methods for modulating cell adhesion” (priority 1996, published 2004)
